{
  "source": "paper doi:10.1101/2023.02.14.528348v1",
  "about": "“Plasticity of the binding pocket in peptide transporters underpins promiscuous substrate recognition” (biorxiv, 2023)",
  "key": {"[1]": {"target": "T1, DtpB (Escherichia coli, UniProt P36837)", "T1 construct": "purified membrane protein; reconstituted in liposomes for transport; Nb132 complex for crystals; host, tags and borders only in supplement", "T1 sequence (P36837 1-489)": "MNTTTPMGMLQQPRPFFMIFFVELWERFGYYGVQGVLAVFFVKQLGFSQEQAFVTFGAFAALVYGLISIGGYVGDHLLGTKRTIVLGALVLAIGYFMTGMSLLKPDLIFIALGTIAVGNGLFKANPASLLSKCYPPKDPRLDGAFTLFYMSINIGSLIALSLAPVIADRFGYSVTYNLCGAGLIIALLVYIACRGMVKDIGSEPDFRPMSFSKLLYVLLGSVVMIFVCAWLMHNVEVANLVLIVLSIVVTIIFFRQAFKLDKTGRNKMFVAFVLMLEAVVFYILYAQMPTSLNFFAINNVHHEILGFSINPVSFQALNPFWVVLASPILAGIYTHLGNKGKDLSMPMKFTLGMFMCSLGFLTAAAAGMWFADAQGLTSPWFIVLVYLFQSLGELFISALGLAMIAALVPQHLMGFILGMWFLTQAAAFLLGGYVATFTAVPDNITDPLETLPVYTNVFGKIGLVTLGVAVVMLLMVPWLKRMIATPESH", "experiment": "inhibition of AA transport, pyranine fluorescence assay in proteoliposomes", "assay_type": "biochemical"}, "[2]": {"target": "T1, DtpB", "experiment": "thermal unfolding titration, irreversible kinetic (Hall) model; also co-crystal structure", "assay_type": "binding", "details": "purified protein"}, "[3]": {"target": "T1, DtpB", "experiment": "inhibition of AA transport, pyranine fluorescence assay in proteoliposomes", "assay_type": "biochemical", "remark": "listed apart in the source"}, "[4]": {"target": "T1, DtpB", "experiment": "thermal unfolding titration, irreversible kinetic (Hall) model", "assay_type": "binding"}, "[5]": {"target": "T1, DtpB", "experiment": "X-ray crystal structure of complex", "assay_type": "binding", "details": "crystallised with nanobody Nb132; inward-facing open; central cavity"}},
  "note": "Marks after values point to notes of the source that are not given here. Residues, ends and D or L forms follow the SMILES beside them.",
  "data": [
    {"smiles": "C[C@H](N)C(=O)N[C@@H](Cc1ccccc1)C(=O)O", "note": "[AF, Ala-Phe]", "values": [
      {"measurement": "IC50", "setting": "[1]", "value": "2370 ± 680", "unit": "µM"},
      {"measurement": "KD", "setting": "[2]", "value": "Peptide affinity is color-coded with AF having the highest affinity"},
      {"measurement": "Ki", "setting": "[3]", "value": "250 ± 80", "unit": "µM"}
    ]},
    {"smiles": "C[C@H](N)C(=O)N[C@@H](Cc1c[nH]cn1)C(=O)O", "note": "[AH] (H-Ala-His-OH)", "values": [
      {"measurement": "Kd", "setting": "[4]", "value": "100 ± 40", "unit": "µM"}
    ]},
    {"smiles": "CC[C@H](C)[C@H](NC(=O)[C@H](C)N)C(=O)O", "note": "[AI, Ala-Ile] (H-Ala-Ile-OH)", "values": [
      {"measurement": "X-ray crystal structure of complex", "setting": "[5]", "value": "Structure of DtpB bound to nanobody Nb132 and the dipeptide AI"}
    ]},
    {"smiles": "C[C@H](N)C(=O)N[C@@H](CCCCN)C(=O)O", "note": "[AK] (H-Ala-Lys-OH)", "values": [
      {"measurement": "Kd", "setting": "[4]", "value": "1770 ± 90", "unit": "µM"}
    ]},
    {"smiles": "CC(C)[C@H](NC(=O)[C@@H](N)CCCCN)C(=O)O", "note": "[KV, Lys-Val] (H-Lys-Val-OH)", "values": [
      {"measurement": "X-ray crystal structure of complex", "setting": "[5]", "value": "Q34 interacts with the ε-amino group of K1* in KV"}
    ]},
    {"smiles": "O=C(O)[C@H](Cc1ccc(O)cc1)NC(=O)[C@@H]1CCCN1", "note": "[PY] (H-Pro-Tyr-OH)", "values": [
      {"measurement": "Kd", "setting": "[4]", "value": "206 ± 126", "unit": "µM"}
    ]},
    {"smiles": "N[C@@H](CO)C(=O)N[C@@H](Cc1c[nH]cn1)C(=O)O", "note": "[SH] (H-Ser-His-OH)", "values": [
      {"measurement": "Kd", "setting": "[4]", "value": "352 ± 38", "unit": "µM"}
    ]}
  ]
}
